{"source": "patent US5565568A", "about": "“2-acylaminopropanamides as tachykinin receptor antagonists” (Eli Lilly and Company, priority 1995, dated 1996)", "key": {"NK-1 receptor": {"biological_target": "T1, NK-1 receptor (Homo sapiens, UniProt P25103)", "T1 construct": "In this assay an aliquot of IM9 cells; endogenous in cells; host or cells: IM9 cells", "T1 sequence (P25103 whole entry)": "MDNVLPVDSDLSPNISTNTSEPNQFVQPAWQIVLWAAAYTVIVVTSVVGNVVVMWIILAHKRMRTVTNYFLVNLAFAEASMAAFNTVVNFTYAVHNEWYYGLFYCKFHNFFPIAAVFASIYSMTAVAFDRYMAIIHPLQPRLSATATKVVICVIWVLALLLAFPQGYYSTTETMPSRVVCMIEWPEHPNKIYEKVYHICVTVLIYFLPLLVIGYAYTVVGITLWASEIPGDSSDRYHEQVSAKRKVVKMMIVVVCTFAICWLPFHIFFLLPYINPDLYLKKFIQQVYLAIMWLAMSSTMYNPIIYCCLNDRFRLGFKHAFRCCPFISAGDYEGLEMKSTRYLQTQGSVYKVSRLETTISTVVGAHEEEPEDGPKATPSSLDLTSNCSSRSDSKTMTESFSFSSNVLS", "experiment": "NK-1 Receptor Binding Assay (125I-labeled substance P, IM9 cells)", "details": "inhibition of 125I-substance P binding to IM9 cells, 45 minutes at 4° C.; certain values may be average of more than one experiment", "procedure": "(§1) The biological activity of the compounds of the present invention is evaluated employing an initial screening assay which rapidly and accurately measured the binding of the tested compound to known NK-1 and NK-2 receptor sites. Assays useful for evaluating tachykinin receptor antagonists are well known in the art. See, e.g., J. Jukic, et al., Life Sciences, 49:1463-1469 (1991); N. Kucharczyk, et al., Journal of Medicinal Chemistry, 36:1654-1661 (1993); N. Rouissi, et al., Biochemical and Biophysical Research Communications, 176:894-901 (1991).\nNK-1 Receptor Binding Assay\nRadioreceptor binding assays are performed using a derivative of a previously published protocol. D. G. Payan, et al., Journal of Immunology, 133:3260-3265 (1984). In this assay an aliquot of IM9 cells (1×10^6 cells/tube in […] medium supplemented with 10% fetal calf serum) is incubated with 20 pM ^125 I-labeled substance P in the presence of increasing competitor concentrations for 45 minutes at 4° C.\nThe IM9 cell line is a well-characterized cell line which is readily available to the public. See, e.g., Annals of the New York Academy of Science, 190: 221-234 (1972); Nature (London), 251:443-444 (1974); Proceedings of the National Academy of Sciences (USA), 71:84-88 (1974). These cells are routinely cultured in RPMI 1640 supplemented with 50 μg/ml gentamicin sulfate and 10% fetal calf serum.\nThe reaction is terminated by filtration through a glass fiber filter harvesting system using filters previously soaked for 20 minutes in 0.1% polyethylenimine. Specific binding of labeled substance P is determined in the presence of 20 nM unlabeled ligand.\n(§2) Column 1 provides the example number of the test antagonist compound as detailed supra. The next columns define the concentration of the test compound (in nanomolar quantities) which inhibits fifty percent of the binding of the appropriate neurokinin, as defined in the column heading. Certain values may represent the average of more than one experiment."}, "human NK-2 receptor": {"biological_target": "T2, human NK-2 receptor (Homo sapiens, UniProt P21452)", "T2 construct": "expressed in transfected cells; host or cells: CHO-hNK-2R cells (membranes)", "T2 sequence (P21452 1-398)": "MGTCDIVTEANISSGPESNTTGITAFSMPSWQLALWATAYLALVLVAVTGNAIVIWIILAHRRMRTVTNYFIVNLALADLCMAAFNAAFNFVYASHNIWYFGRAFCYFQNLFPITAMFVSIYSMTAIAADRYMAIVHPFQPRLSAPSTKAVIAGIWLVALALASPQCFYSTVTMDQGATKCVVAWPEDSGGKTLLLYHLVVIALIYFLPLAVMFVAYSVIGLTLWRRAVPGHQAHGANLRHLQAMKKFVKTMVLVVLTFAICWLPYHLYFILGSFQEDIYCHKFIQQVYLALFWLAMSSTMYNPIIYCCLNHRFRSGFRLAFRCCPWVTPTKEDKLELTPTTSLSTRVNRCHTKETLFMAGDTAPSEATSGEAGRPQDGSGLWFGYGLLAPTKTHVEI", "experiment": "NK-2 Receptor Binding Assay ([125I]iodohistidyl-neurokinin A, CHO-hNK-2R membranes)", "details": "inhibition of [125I]iodohistidyl-neurokinin A binding, 1 hour at room temperature, certain values may be average of more than one experiment", "procedure": "as §1\nNK-2 Receptor Binding Assay\nThe CHO-hNK-2R cells, a CHO-derived cell line transformed with the human NK-2 receptor, expressing about 400,000 such receptors per cell, are grown in 75 cm^2 flasks or roller bottles in minimal essential medium (alpha modification) with 10% fetal bovine serum. The gene sequence of the human NK-2 receptor is given in N. P. Gerard, et al., Journal of Biological Chemistry, 265:20455-20462 (1990).\nFor preparation of membranes, 30 confluent roller bottle cultures are dissociated by washing each roller bottle with 10 ml of Dulbecco's phosphate buffered saline (PBS) without calcium and magnesium, followed by addition of 10 ml of enzyme-free cell dissociation solution (PBS-based, from Specialty Media, Inc.). After an additional 15 minutes, the dissociated cells are pooled and centrifuged at 1,000 RPM for 10 minutes in a clinical centrifuge. Membranes are prepared by homogenization of the cell pellets in 300 ml 50 mM Tris buffer, pH 7.4 with a Tekmar® homogenizer for 10-15 seconds, followed by centrifugation at 12,000 RPM (20,000 x g) for 30 minutes using a Beckman JA-14® rotor. The pellets are washed once using the above procedure. and the final pellets are resuspended in 100-120 ml 50 mM Tris buffer, pH 7.4, and 4 ml aliquots stored frozen at -70° C. The protein concentration of this preparation is 2 mg/ml.\nFor the receptor binding assay, one 4-ml aliquot of the CHO-hNK-2R membrane preparation is suspended in 40 ml of assay buffer containing 50 mM Tris, pH 7.4, 3 mM manganese chloride, 0.02% bovine serum albumin (BSA) and 4 μg/ml chymostatin. A 200 μl volume of the homogenate (40 μg protein) is used per sample. The radioactive ligand is [^125 I]iodohistidyl-neurokinin A (New England Nuclear, NEX-252), 2200 Ci/mmol. The ligand is prepared in assay buffer at 20 nCi per 100 μl; the final concentration in the assay is 20 pM. Non-specific binding is determined using 1 μM eledoisin. Ten concentrations of eledoisin from 0.1 to 1000 nM are used for a standard concentration-response curve.\nAll samples and standards are added to the incubation in 10 μl dimethylsulfoxide (DMSO) for screening (single dose) or in 5 μl DMSO for IC50 determinations. The order of additions for incubation is 190 or 195 μl assay buffer, 200 μl homogenate, 10 or 5 μl sample in DMSO, 100 μl radioactive ligand. The samples are incubated 1 hour at room temperature and then filtered on a cell harvester through filters which had been presoaked for two hours in 50 mM Tris buffer, pH 7.7, containing 0.5% BSA. The filter is washed 3 times with approximately 3 ml of cold 50 mM Tris buffer, pH 7.7. The filter circles are then punched into 12×75 mm polystyrene tubes and counted in a gamma counter.\nas §2"}, "benzodiazepine receptor": {"system": "benzodiazepine receptor", "details": "Biochemical Pharmacology, 30:3016-3019 (1981); cited from earlier work"}, "rat alpha-fetoprotein": {"system": "rat alpha-fetoprotein", "details": "Journal of Steroid Biochemistry, 16:503-507 (1982); in vitro; cited from earlier work"}, "human erythrocytes": {"system": "human erythrocytes", "details": "Arzneim-Forsch, 32(I):684-685 (1982); in vitro; cited from earlier work"}, "[1]": {"system": "glucose transport in human erythrocytes", "details": "Arzneim-Forsch, 32(I):684-685 (1982); in vitro; cited from earlier work"}}, "note": "Counter-ions that a name gives are not always drawn.", "data": [{"smiles": "O=C(CN1CCC(Cc2ccccc2)CC1)NC(Cc1c[nH]c2ccccc12)C(=O)NCc1ccccc1Cl", "note": "(centres unmarked) [Example 1, N-(2-chlorobenzyl)-3-(1H-indol-3-yl)-2-[(4-benzylpiperidin-1-yl)acetyl]amino]propanamide hydrochloride salt]", "values": [{"measurement": "IC50", "setting": "NK-1 receptor", "value": 290, "unit": "nM"}, {"measurement": "IC50", "setting": "human NK-2 receptor", "value": 330, "unit": "nM"}]}, {"smiles": "O=C1CN(CC(=O)NC(Cc2c[nH]c3ccccc23)C(=O)NCc2ccccc2Cl)C(=O)CN1", "note": "(centres unmarked) [Example 2]", "values": [{"measurement": "IC50", "setting": "NK-1 receptor", "value": 230, "unit": "nM"}, {"measurement": "IC50", "setting": "human NK-2 receptor", "value": 1500, "unit": "nM"}]}, {"smiles": "O=C(CN1CC(=O)N(Cc2ccccc2)CC1=O)NC(Cc1c[nH]c2ccccc12)C(=O)NCc1ccccc1", "note": "(centres unmarked) [Example 3]", "values": [{"measurement": "IC50", "setting": "human NK-2 receptor", "value": 1500, "unit": "nM"}]}, {"smiles": "O=C(CN1CC(=O)N(Cc2ccccc2)CC1=O)NC(Cc1c[nH]c2ccccc12)C(=O)Nc1ccccc1", "note": "(centres unmarked) [Example 4]", "values": [{"measurement": "IC50", "setting": "human NK-2 receptor", "value": 2100, "unit": "nM"}]}, {"smiles": "O=C(CN1CC(=O)N(Cc2ccccc2)CC1=O)NC(Cc1c[nH]c2ccccc12)C(=O)NCCc1ccccc1", "note": "(centres unmarked) [Example 5]", "values": [{"measurement": "IC50", "setting": "human NK-2 receptor", "value": 740, "unit": "nM"}]}, {"smiles": "O=C(CN1CC(=O)N(Cc2ccccc2)CC1=O)NC(Cc1c[nH]c2ccccc12)C(=O)NCc1ccccc1Cl", "note": "(centres unmarked) [Example 6]", "values": [{"measurement": "IC50", "setting": "NK-1 receptor", "value": 41, "unit": "nM"}, {"measurement": "IC50", "setting": "human NK-2 receptor", "value": 82, "unit": "nM"}]}, {"smiles": "O=C(CN1CCCCC1)NC(Cc1c[nH]c2ccccc12)C(=O)NCc1ccccc1Cl", "note": "(centres unmarked) [Example 7]", "values": [{"measurement": "IC50", "setting": "NK-1 receptor", "value": 730, "unit": "nM"}, {"measurement": "IC50", "setting": "human NK-2 receptor", "value": 2200, "unit": "nM"}]}, {"smiles": "CN1CCN(CC(=O)NC(Cc2c[nH]c3ccccc23)C(=O)NCc2ccccc2Cl)CC1", "note": "(centres unmarked) [Example 8]", "values": [{"measurement": "IC50", "setting": "NK-1 receptor", "value": 78, "unit": "nM"}, {"measurement": "IC50", "setting": "human NK-2 receptor", "value": 3400, "unit": "nM"}]}, {"smiles": "O=C(CN1CCN(c2ccccc2)CC1)NC(Cc1c[nH]c2ccccc12)C(=O)NCc1ccccc1Cl", "note": "(centres unmarked) [Example 9]", "values": [{"measurement": "IC50", "setting": "NK-1 receptor", "value": 30, "unit": "nM"}, {"measurement": "IC50", "setting": "human NK-2 receptor", "value": 240, "unit": "nM"}]}, {"smiles": "O=C(CN1CCC(c2ccccc2)CC1)NC(Cc1c[nH]c2ccccc12)C(=O)NCc1ccccc1Cl", "note": "(centres unmarked) [Example 10]", "values": [{"measurement": "IC50", "setting": "NK-1 receptor", "value": 140, "unit": "nM"}, {"measurement": "IC50", "setting": "human NK-2 receptor", "value": 570, "unit": "nM"}]}, {"smiles": "O=C(CN1CCN(Cc2ccccc2)CC1)NC(Cc1c[nH]c2ccccc12)C(=O)NCc1ccccc1Cl", "note": "(centres unmarked) [Example 13, N-(2-chlorobenzyl)-3-(1H-indol-3-yl)-2-[(4-benzylpiperazin-1-yl)acetyl]amino]propanamide dihydrochloride salt]", "values": [{"measurement": "IC50", "setting": "NK-1 receptor", "value": 34, "unit": "nM"}, {"measurement": "IC50", "setting": "human NK-2 receptor", "value": 240, "unit": "nM"}]}, {"smiles": "COc1ccccc1CNC(=O)C(Cc1c[nH]c2ccccc12)NC(=O)CN1CCN(c2ccccc2)CC1", "note": "(centres unmarked) [Example 14]", "values": [{"measurement": "IC50", "setting": "NK-1 receptor", "value": 67, "unit": "nM"}, {"measurement": "IC50", "setting": "human NK-2 receptor", "value": 650, "unit": "nM"}]}, {"smiles": "CN(Cc1ccccc1)C(=O)C(Cc1c[nH]c2ccccc12)NC(=O)CN1CCN(c2ccccc2)CC1", "note": "(centres unmarked) [Example 15]", "values": [{"measurement": "IC50", "setting": "NK-1 receptor", "value": 180, "unit": "nM"}]}, {"smiles": "O=C(CN1CCN(c2ccccc2)CC1)NC(Cc1c[nH]c2ccccc12)C(=O)NCc1ccccc1", "note": "(centres unmarked) [Example 16]", "values": [{"measurement": "IC50", "setting": "NK-1 receptor", "value": 140, "unit": "nM"}, {"measurement": "IC50", "setting": "human NK-2 receptor", "value": 430, "unit": "nM"}]}, {"smiles": "O=C(CN1CCN(c2ccccc2)CC1)NC(Cc1c[nH]c2ccccc12)C(=O)NCc1ccc(Cl)cc1", "note": "(centres unmarked) [Example 17]", "values": [{"measurement": "IC50", "setting": "NK-1 receptor", "value": 210, "unit": "nM"}, {"measurement": "IC50", "setting": "human NK-2 receptor", "value": 210, "unit": "nM"}]}, {"smiles": "CN1CC(=O)N(CC(=O)NC(Cc2c[nH]c3ccccc23)C(=O)NCc2ccccc2Cl)CC1=O", "note": "(centres unmarked) [Example 18]", "values": [{"measurement": "IC50", "setting": "NK-1 receptor", "value": 95, "unit": "nM"}, {"measurement": "IC50", "setting": "human NK-2 receptor", "value": 3100, "unit": "nM"}]}, {"smiles": "NC(Cc1c[nH]c2ccccc12)C(=O)OCc1ccccc1", "note": "(centres unmarked) [benzyl 3-(3-indolyl)-2-aminopropionate]", "values": [{"measurement": "Inhibition of benzodiazepine receptor binding in vitro", "setting": "benzodiazepine receptor", "value": "Inhibition"}, {"measurement": "inhibition of estrogen binding to rat alpha-fetoprotein", "setting": "rat alpha-fetoprotein", "value": "weak inhibition"}]}, {"smiles": "CC(N)(C(=O)OCc1ccccc1)c1c[nH]c2ccccc12", "note": "(centres unmarked) [benzyl (2-(3-indolyl)-2-aminopropionate]", "values": [{"measurement": "antisickling activity", "setting": "human erythrocytes", "value": "antisickling agent"}, {"measurement": "inhibition of glucose transport in human erythrocytes", "setting": "[1]", "value": "inhibitor of glucose transport"}]}]}
